Source: publication PMC6572293, “Antihypertensive Effects of Corn Silk Extract and Its Novel Bioactive Constituent in Spontaneously Hypertensive Rats: The Involvement of Angiotensin-Converting Enzyme Inhibition” (Molecules, 2019)
Read-outs that look alike come from different tables or passages of the source. Peptide text beside a SMILES is read from it.

Experiments:
[1] = system: spontaneously hypertensive rats (SHRs); assay: Tail-cuff systolic blood pressure in spontaneously hypertensive rats; format: in vivo, rat (male SHR); conditions: SHR; for Decrease of SBP, intraperitoneal: 1 h after injection
Description: Male SHRs (200–250 g, 10 week-old) were purchased from National Laboratory Animal Center (Taipei, Taiwan). Rats were maintained under a 12 h day/12 h night cycle and had free access to water and food. Rat experiments were conducted under ethics approval from China Medical University Animal Care and Use Committee (Permit No. 104-75-N). SHRs with tail SBP ≥ 180 mmHg were randomly divided into five groups with six rats per group. Rats were given intraperitoneally or orally with 400 μL of distilled water (blank), captopril (Catalog No. C4042), or various dosages of CSE or peptide (dissolved in water). SBP was measured by a tail-cuff apparatus (Non-Invasive Blood Pressure System, Panlab, Barcelona, Spain). Rats were placed in a warm holder kept at 37 ± 1 °C for 10 min before the measurement. Changes in SBP were calculated by subtracting SBP at indicated time point from SBP at 0 h.

[2] = system: healthy human subjects and animals; conditions: exogenously administered angiotensin I, no reference given; cited from earlier work
Excerpt: CSE was a protein-rich extract and the protein content of CSE was 10.86%. Moreover, the well-known ACE inhibitors are amino acid or dipeptide drugs. Therefore, we proposed that there were bioactive peptides responsible for the anti-hypertensive activities of CSE. Proteomics and bioinformatics analyses were further applied to identify the anti-hypertensive bioactive peptides in CSE. Peptides with anti-hypertensive potentials have been determined from corn. For example, dipeptide Ala-Tyr (AY) has been identified from corn gluten meal, a major byproduct of corn wet milling. AY affects the ACE act ...

ACE = conditions: cited from earlier work
Excerpt: (§1) Food peptides with anti-ACE activities have been identified from plants and animals. For example, oligopeptides FDGIP and AIDPVRA are ACE inhibitor derived from Caulerpa lentillifera. […] Peptides from auto-digested reishi (Ganoderma lingzhi) extract show potent inhibition against ACE and hypotensive activities in SHRs. Lacto-tr ... || CSE was a protein-rich extract and the protein content of CSE was 10.86%. Moreover, the well-known ACE inhibitors are amino acid or dipeptide drugs. Therefore, we proposed that there were bioactive peptides responsible for the anti-hypertensive activities of CSE. Proteomics and bioinformatics analyses were further applied to identify the anti-hypertensive bioactive peptides in CSE. Peptides with anti-hypertensive potentials have been determined from corn. For example, dipeptide Ala-Tyr (AY) has been identified from corn gluten meal, a major byproduct of corn wet milling. AY affects the ACE act ...

[3] = from Coix glutelin; cited from earlier work
Excerpt: (§2) Food peptides with anti-ACE activities have been identified from plants and animals. For example, oligopeptides FDGIP and AIDPVRA are ACE inhibitor derived from Caulerpa lentillifera. […] Peptides from auto-digested reishi (Ganoderma lingzhi) extract show potent inhibition against ACE and hypotensive activities in SHRs. Lacto-tr ...

SHRs [4] = conditions: SHR, cited from earlier work
Excerpt: as §1

endothelial function = conditions: in vitro; cited from earlier work
Excerpt: as §2

[5] = system: subjects with blood pressure ranging from normal to mild hypertension; conditions: intake of tablets containing VPP and IPP; cited from earlier work
Excerpt: as §2

ACE N-domain = ACE N-domain selective inhibitor; cited from earlier work
Excerpt: Somatic ACE is composed of two similar catalytic domains (N- and C-domains).

ACE (serum) [6] = molecular target: T1, ACE (serum) (Mus musculus, UniProt P09470); assay: ACE activity assay, H-HL substrate; format: biochemical, mouse (BALB/c serum)
T1 construct: Mouse sera collected from normal BALB/c mice were used as the source of soluble somatic ACE; from tissue; host or cells: serum of normal BALB/c mice
T1 sequence (P09470 35-1237 limits assumed): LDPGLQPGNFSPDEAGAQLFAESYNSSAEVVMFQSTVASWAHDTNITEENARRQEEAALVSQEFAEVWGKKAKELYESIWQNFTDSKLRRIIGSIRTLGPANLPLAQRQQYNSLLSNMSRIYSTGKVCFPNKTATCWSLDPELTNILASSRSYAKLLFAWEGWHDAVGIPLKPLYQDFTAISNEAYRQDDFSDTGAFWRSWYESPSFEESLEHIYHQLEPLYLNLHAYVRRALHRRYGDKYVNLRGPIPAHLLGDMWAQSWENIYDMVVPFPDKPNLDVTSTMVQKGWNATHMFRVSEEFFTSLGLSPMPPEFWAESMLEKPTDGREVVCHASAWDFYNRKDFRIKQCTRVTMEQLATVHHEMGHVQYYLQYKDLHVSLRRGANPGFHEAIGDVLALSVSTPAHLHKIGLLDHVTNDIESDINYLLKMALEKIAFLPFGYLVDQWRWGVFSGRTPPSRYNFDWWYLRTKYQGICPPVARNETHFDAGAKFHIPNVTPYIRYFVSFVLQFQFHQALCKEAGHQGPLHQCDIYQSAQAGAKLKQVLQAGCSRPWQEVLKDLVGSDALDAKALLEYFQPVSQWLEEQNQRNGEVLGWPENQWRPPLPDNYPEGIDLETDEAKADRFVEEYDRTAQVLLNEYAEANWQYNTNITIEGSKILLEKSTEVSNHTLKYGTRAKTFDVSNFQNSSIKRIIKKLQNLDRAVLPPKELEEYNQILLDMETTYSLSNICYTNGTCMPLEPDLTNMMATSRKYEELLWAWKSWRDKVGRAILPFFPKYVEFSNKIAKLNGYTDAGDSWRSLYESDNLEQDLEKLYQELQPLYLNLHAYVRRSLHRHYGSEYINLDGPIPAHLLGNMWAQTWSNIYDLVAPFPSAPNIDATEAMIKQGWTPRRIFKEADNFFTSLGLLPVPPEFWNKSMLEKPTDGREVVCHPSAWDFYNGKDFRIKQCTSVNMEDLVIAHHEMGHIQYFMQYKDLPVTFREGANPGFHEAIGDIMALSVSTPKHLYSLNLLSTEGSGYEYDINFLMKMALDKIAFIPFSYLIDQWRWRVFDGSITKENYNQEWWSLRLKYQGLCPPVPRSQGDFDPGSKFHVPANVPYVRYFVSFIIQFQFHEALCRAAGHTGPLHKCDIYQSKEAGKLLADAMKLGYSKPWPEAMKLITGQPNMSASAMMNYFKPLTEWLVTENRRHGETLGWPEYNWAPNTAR
Description: (§3) Various amounts of CSBp5 were mixed with mouse sera in the presence of H-HL or Z-FHL substrate, and the ACE activity was determined by measuring the fluorescence-labeled hydrolyzed substrates.
(§4) ACE activity assay was performed as described previously with a slight modification. Mouse sera collected from normal BALB/c mice were used as the source of soluble somatic ACE. ACE activity in mouse serum was determined as described previously. […] To correct the intrinsic fluorescence of mouse serum, blank was performed according to the aforementioned procedures without inhibitors.

SHRs [7] = assay: Tail diastolic blood pressure in spontaneously hypertensive rats; format: in vivo, rat (male SHR); conditions: SHR, oral, various dosages of CSBp5, 0 and 1 h; n = 6
Description: Male SHRs (200–250 g, 10 week-old) were purchased from National Laboratory Animal Center (Taipei, Taiwan). Rats were maintained under a 12 h day/12 h night cycle and had free access to water and food. Rat experiments were conducted under ethics approval from China Medical University Animal Care and Use Committee (Permit No. 104-75-N).
SHRs with tail SBP ≥ 180 mmHg were randomly divided into five groups with six rats per group. Rats were given intraperitoneally or orally with 400 μL of distilled water (blank), captopril (Catalog No. C4042), or various dosages of CSE or peptide (dissolved in water). SBP was measured by a tail-cuff apparatus (Non-Invasive Blood Pressure System, Panlab, Barcelona, Spain). Rats were placed in a warm holder kept at 37 ± 1 °C for 10 min before the measurement. Changes in SBP were calculated by subtracting SBP at indicated time point from SBP at 0 h.
Antihypertensive Effects of Corn Silk Extract and
Its Novel Bioactive Constituent in Spontaneously
Hypertensive Rats: The Involvement of
Angiotensin-Converting Enzyme Inhibition
Chia-Cheng Li 1, Yu-Chen Lee 2,3, Hsin-Yi Lo 1, Yu-Wen Huang 4, Chien-Yun Hsiang 5,* and […]
μmol/kg captopril or various dosages of CSBp5. Tail diastolic blood pressure was measured
at 0 and 1 h. Data are expressed as diastolic blood pressure (mmHg) (top panel) or changes in […]

ACE (serum) [8] = molecular target: T1, ACE (serum); assay: ACE activity assay, Z-FHL substrate; format: biochemical, mouse (BALB/c serum); conditions: various concentrations
Description: as §3, §4

[9] = intraperitoneal, 10 μmol/kg, tail-cuff, mean ± standard error, n = 6

C[C@H](CS)C(=O)N1CCC[C@H]1C(=O)O [captopril]
Decrease of SBP, intraperitoneal [1, 9]: 52.83±19.06 mmHg | Decrease of SBP at 2 h (time course) ([1]; oral, 10 μmol/kg): approximately 60 mmHg | SBP level lower than that of the blank group ([1]; oral, 10 mg/kg, SBP at 0 and 1 h, tail-cuff, mean ± standard error, n = 6): 47.6 ± 4.34 mmHg | Angiotensin I-induced elevation of blood pressure (in words) [2]: attenuated or abolished

FDGIP [oligopeptide derived from Caulerpa lentillifera]
ACE inhibition (in words) (ACE; from Caulerpa lentillifera): ACE inhibitor

GAAGGAF
Antihypertensive effect (in words) [3]: significant antihypertensive effect

Ala-Tyr [AY]
Maximal reduction of SBP (SHRs [4]; oral, 50 mg/kg, 2 h): 9.5 mmHg | IC50 (ACE; read-out: IC50, ACE): 14.2 µM

Met-Ile/Leu-Pro-Pro [tetrapeptide from hydrolyzed zein]
IC50, ACE in vitro (ACE): 70.32 µg/mL | IC50 (ACE; read-out: IC50, ACE in vitro): 155 µM

AIDPVRA [oligopeptide derived from Caulerpa lentillifera]
ACE inhibition (in words) (ACE; from Caulerpa lentillifera): ACE inhibitor

Ile-Pro-Pro [IPP, lacto-tripeptide from sour milk]
Endothelial function (in words) (endothelial function): protect the endothelial function in vitro | Improvement in hypertension and side effects (in words) [5]: mild improvement in hypertension without side effects | Anti-hypertensive effect in SHRs (in words) (SHRs [4]): exhibit anti-hypertensive effects in SHRs | ACE inhibition (in words) (ACE; sour milk peptides): inhibit the ACE activity

Val-Pro-Pro [VPP, lacto-tripeptide from sour milk]
Endothelial function (in words) (endothelial function): protect the endothelial function in vitro | Improvement in hypertension and side effects (in words) [5]: mild improvement in hypertension without side effects | Anti-hypertensive effect in SHRs (in words) (SHRs [4]): exhibit anti-hypertensive effects in SHRs | ACE inhibition (in words) (ACE; sour milk peptides): inhibit the ACE activity

CC(=O)N[C@@H](CC(=O)O)C(=O)N[C@@H](Cc1ccccc1)P(=O)(O)C[C@@H](C)C(=O)N[C@@H](C)C(N)=O [RXP407]
Effect on blood pressure (in words) (ACE N-domain): no effect on blood pressure

CC(C)C[C@H](NC(=O)[C@H](CC(N)=O)NC(=O)[C@H](CC(=O)O)NC(=O)[C@H](Cc1ccccc1)NC(=O)[C@H](CCCCN)NC(=O)[C@@H](N)CO)C(=O)N[C@@H](Cc1ccc(O)cc1)C(=O)NCC(=O)N[C@@H](CS)C(=O)N[C@@H](CCCNC(=N)N)C(=O)O [CSBp5] (H-SKFDNLYGCR-OH; N-terminus and C-terminus assumed)
Domain preference of ACE inhibition (in words) (ACE (serum) [6]; H-HL versus Z-FHL hydrolysis): a more effective inhibition on the C-domain of ACE | Inhibition of ACE activity, H-HL (in words) (ACE (serum) [6]; mouse serum ACE, H-HL, various concentrations): inhibited the ACE activity and the inhibition displayed a dose-dependent manner | Changes in diastolic blood pressure (in words) (SHRs [7]): consistent with the changes in SBP | Inhibition of ACE activity, Z-FHL (in words) (ACE (serum) [8]): inhibited the ACE activity and the inhibition displayed a dose-dependent manner | Decrease of SBP, intraperitoneal [1, 9]: 28.33 ± 12.5 mmHg | Decrease of SBP, intraperitoneal (in words) ([1]; intraperitoneal, various dosages, 1 h): decreased SBP levels in a dose-dependent manner | Decrease of SBP, oral ([1]; oral, 10 μmol/kg, 1 h, tail-cuff, mean ± standard error, n = 6): 36.78 ± 13.25 mmHg | Decrease of SBP at 2 h (time course) ([1]; oral, 10 μmol/kg): ~30 mmHg | Duration of SBP decrease (in words) ([1]; oral, 10 μmol/kg, measured at 0, 1, 2, 4 and 6 h): persistent during a 6-h measurement | Decrease of SBP, oral (in words) ([1]; oral, various dosages, 1 h): decreased the SBP levels in a dose-dependent manner
